According to US20230340027A1, “UBIQUITIN HIGH AFFINITY PEPTIDES, AND METHODS OF USING SAME, AND IDENTIFYING SAME” (TECHNION RESEARCH & DEVELOPMENT FOUNDATION LIMITED, priority 2020, published 2023):
Starred links: 1 amine or outer side, 2 acyl side, 3 side chain; linkers in the order of their positions; H or OH if unused. Positions of bridges follow the written chain, without caps; N, C: chain ends. Non-standard residues stand in square brackets, D forms with d. Residues, ends and D or L forms follow the SMILES beside them. Chains are numbered I, II in the order given. No end group written: not given here. *: point of attachment. Fluorescein(5-Mal) = O=C1OC2(c3ccc(O)cc3Oc3cc(O)ccc32)c2ccc(N3C(=O)CC(*)C3=O)cc21; CH2 = C([*:1])[*:2]

Tests used:
biotin-tetra-UbK48 = biological target: T1, biotin-tetra-UbK48 (Homo sapiens, UniProt P0CG47); assay: Fluorescence-based competitive assay for peptide screening (relative binding vs Ub4_ix); details: 5 molar equiv unlabeled peptide, competition with Ub4_ix-FITC; fluorescence inversely proportional to affinity
T1 construct: a Ub polymer comprises Ub monomers linked to one another at lysine (Lys) residue at position 48 (K48); made in house; host or cells: total chemical synthesis (no expression host)
Procedure: Streptavidin-coated microplate (96 well plate) was washed (3×100 μl) with HEPES buffer. Then, 1 μg of biotin-tetra-UbK48 in 100 μl of HEPES buffer was incubated in each well for 30 minutes at room temperature (RT). Additional wells were kept free of biotin-tetra-UbK48 for subsequent blank subtraction. Following a washing step, unlabeled candidate peptides, including peptide-standard (Ub4_ix), were incubated in an excess amount (5 molar equiv. relative to biotin-tetra-UbK48) for 30 minutes at RT to saturate binding to the target. […] Finally, following washing, each well was treated with 100 μl of 6 M Gn·HCl at RT for 30 minutes to release the bound peptides. Then, the solution with the released peptides was transferred to Nunc black 96-well plate and fluorescence was measured (λ excitation=480 nm and λ emission=525 nm). The obtained values were then normalized, and compared with peptide standard, while the fluorescence signal was inversely proportional to the binding affinity of the peptide. The calculations of relative change in binding were performed according to the formula: Y=−[1−(a/b)]×100, where Y is the change in the signal relative to the standard Ub4_ix (in percentage); a is signal measured for each peptide variant (in relative fluorescence units); b is signal measured for Ub4_ix.
The inventors envisioned a screening strategy to proceed through four main steps, each terminated by washings with binding buffer. First, biotin tagged tetra-UbK48 was immobilized in a constant amount (1 μg per well) in streptavidin covered 96 well plate (FIG. 1(i and ii)). Then, unlabeled candidate peptides were incubated in excess in each well to saturate binding to the target. […] Finally, the bound peptides were released from wells by treatment with 6 M guanidine hydrochloride (Gn·HCl) solution followed by measuring the gained fluorescence (FIG. 1(i)). The obtained values were then compared to the fluorescence of the control well containing the unlabeled peptide to calculate relative binding. The gained fluorescence was inversely proportional to the binding affinity of the peptide candidate. […]

HeLa cells [1] = assay: Flow cytometry annexin V-FITC/PI apoptosis / viability assay; assay type: cell-based
Procedure: Induction of apoptosis in Hela cell lines by treatment with cyclic peptides was determined using annexin V-FITC/propidium iodide(PI) apoptosis detection kit (BD Biosciences) according to the manufacturer's protocol. 2×10^5 cells/well were treated with inhibitors for 24- and 48-hours in a dose dependent manner. Apoptotic cells were determined as annexin V-FITC positive and PI negative. DMSO and MG132 were used as negative and positive controls respectively. Samples were acquired on a Becton Dickinson LSR II flow cytometer (BD Biosciences) and analyzed using Flowjo software.

tetra-Ub K48 = biological target: T2, tetra-Ub K48 (Homo sapiens, UniProt P0CG47); assay: Kd determination of FITC-labeled peptides on immobilized biotin-tetra-UbK48 (fluorescence binding curve); details: FITC-labeled peptide, tetra-Ub K48, one site non-cooperative binding model, triplicates; read-out: dissociation constant (Kd)
T2 construct: a Ub polymer comprises Ub monomers linked to one another at lysine (Lys) residue at position 48 (K48); made in house; host or cells: total chemical synthesis (no expression host)
Procedure: (1C) The bound peptides are released using Guanidinium-HCl (Gn·HCl) and the fluorescence intensity is measured. (1ii) A non-limiting schematic representation for measuring the dissociation constant (Kd) of FITC-labeled peptide with different concentrations. (1D) A FITC-labeled cyclic peptide with different concentrations are introduced in different wells for binding to the biotin-tetra Ub. (1E) Washing out the unbounded labeled cyclic peptide. (1F) The bound peptides are released using Gn·HCl and the fluorescence intensity is measured. […] All measurements were performed in triplicates.
To determine the dissociation constant (Kd) of labeled peptides, following immobilization step of biotin-tetra-UbK48, different concentrations of the labeled peptide were incubated. Then, the bound cyclic peptides were released with 6 M Gn·HCl, followed by fluorescence measurement (λex=480 nm and λem=525 nm). […]
First, biotin tagged tetra-UbK48 was immobilized in a constant amount (1 μg per well) in streptavidin covered 96 well plate (FIG. 1(i and ii)). […] Finally, the bound peptides were released from wells by treatment with 6 M guanidine hydrochloride (Gn·HCl) solution followed by measuring the gained fluorescence (FIG. 1(i)). The obtained values were then compared to the fluorescence of the control well containing the unlabeled peptide to calculate relative binding. […]

HeLa cells [2] = assay: Peptide cell uptake, live-cell confocal microscopy; assay type: cell-based; details: 1 μM, 2 hours, confocal microscope, FITC signal
Procedure: HeLa cells (CCL-2™) were purchased from ATCC®. Dulbecco's modified Eagle's medium (DMEM), Eagle's minimum essential medium (EMEM), Fetal bovine serum (FBS), L-Glutamine, antibiotics (penicillin/streptomycin), trypsin/EDTA and phosphate-buffered saline (PBS) were purchased from biological industries. Hoechst 33342 solution (20 mM), SYTOX blue (5 mM) and Lysotracker probes were purchased from Thermo-fisher. μ-Slide 8 well ibiTreat for live-cell confocal microscopy was purchased from ibidi and polylysine hydrobromide was purchased from Sigma. Distribution of fluorescent peptides in live cells was analyzed using a confocal laser scanning microscope (Confocal Zeiss LSM 710) equipped with 40×NA 1.2 water immersion objective. During CLSM analysis the samples were kept at 37° C. in a humidified chamber.
The cells were washed with PBS buffer followed by addition of fresh phenol-free optical medium and live-cell imaging was carried out using a LSM 710 laser scanning confocal microscope equipped with an environmental control module.

24: methylene group stapled dimer of Ub4_ix_S7C, —S—CH2—S— bridge ({CH2CO}-WLYLDDCGDWWICG; thioether N-13 (inferred); also: dimer: Cys7 joined to Cys7 of second copy by -S-CH2-S- bridge) [compound 24]
change in the relative fluorescence signal compared to Ub4_ix (improved binding) (biotin-tetra-UbK48): ~57%
early- and late stage apoptosis compared to Ub4_ix (HeLa cells [1]; HeLa cells, Annexin V/PI, 24 or 48 h): increased early- and late stage apoptosis
induction of cell death (HeLa cells [1]; Hela cells, 24- and 48-hours incubation): able to induce cell death

CC[C@H](C)[C@@H]1NC(=O)[C@H](Cc2c[nH]c3ccccc23)NC(=O)[C@H](Cc2c[nH]c3ccccc23)NC(=O)[C@H](CC(=O)O)NC(=O)CNC(=O)[C@H](CSCSC[C@@H]2NC(=O)[C@H](CC(=O)O)NC(=O)[C@H](CC(=O)O)NC(=O)[C@H](CC(C)C)NC(=O)[C@H](Cc3ccc(O)cc3)NC(=O)[C@H](CC(C)C)NC(=O)[C@@H](Cc3c[nH]c4ccccc34)NC(=O)CSC[C@@H](C(=O)NCC(=O)N[C@@H](C)C(=O)N[C@@H](CSC3CC(=O)N(c4ccc5c(c4)C(=O)OC54c5ccc(O)cc5Oc5cc(O)ccc54)C3=O)C(N)=O)NC(=O)[C@H]([C@@H](C)CC)NC(=O)[C@H](Cc3c[nH]c4ccccc34)NC(=O)[C@H](Cc3c[nH]c4ccccc34)NC(=O)[C@H](CC(=O)O)NC(=O)CNC2=O)NC(=O)[C@H](CC(=O)O)NC(=O)[C@H](CC(=O)O)NC(=O)[C@H](CC(C)C)NC(=O)[C@H](Cc2ccc(O)cc2)NC(=O)[C@H](CC(C)C)NC(=O)[C@@H](Cc2c[nH]c3ccccc23)NC(=O)CSC[C@@H](C(=O)NCC(=O)N[C@@H](C)C(=O)N[C@@H](CSC2CC(=O)N(c3ccc4c(c3)C(=O)OC43c4ccc(O)cc4Oc4cc(O)ccc43)C2=O)C(N)=O)NC1=O (some centres unmarked) [peptide 30] (I: {CH2CO}-[dW]LYLDDCGDWWICGAC(Fluorescein(5-Mal))-NH2 / II: {CH2CO}-[dW]LYLDDCGDWWICGAC(Fluorescein(5-Mal))-NH2; linker I:7-II:7 via CH2; thioether I:N-I:13, II:N-II:13)
Kd (tetra-Ub K48): 12.3 ± 1.26 nM
cellular uptake / permeability and localization (HeLa cells [2]): permeability and cytosolic localization
cellular uptake / permeability and localization (HeLa cells [2]; listed as (Ub4_ix_S7C)2CH2-FITC): quickly and efficiently distributed within cells

Ub4_ix_S7A: Ub4_ix analogue from Alanine scan, position 7 Ala; likely WLYLDDAGDWWICG (SEQ ID NO: 5) ({CH2CO}-WLYLDDAGDWWICG; thioether N-13 (inferred))
change in the relative fluorescence signal compared to Ub4_ix (improved binding) (biotin-tetra-UbK48): ~13%

peptide 23: disulfide bond containing dimeric cyclic peptide of Ub4_ix_S7C ({CH2CO}-WLYLDDCGDWWICG; thioether N-13 (inferred); also: dimer joined by disulfide bond, places not given here)
change in the relative fluorescence signal compared to Ub4_ix (improved binding) (biotin-tetra-UbK48): ~70%
